# Test results taken from a melting point compilation (Tetko et al.; mined from patent text by program, amines drawn as free bases though some values may be those of a salt).
row,SMILES,melting point
1,OC(Cn1cncn1)c1ccc(Oc2ccc(Br)cc2)cc1Cl (stereo not drawn),115 to 118 °C
2,NC(=O)c1nn(-c2ccc(S(N)(=O)=O)cc2)c2c1CSc1ccccc1-2,211 to 213 °C
3,O=c1[nH]nc(CO)c2ccccc12,199 to 201 °C
4,CCCCCCCCCCCCCCCCSCCCCCCCCCCC(=O)NN,108 °C
5,Clc1ccc2c3c(cccc13)C(NCCCCCn1ccnc1)=N2,132 to 134 °C
6,CCOc1cccc(C(COC)n2nc(C(=O)O)c3c2-c2ccc(OCc4cncnc4)cc2CC3)c1 (stereo not drawn),208 to 211 °C
7,O=C(c1ccccc1)C(Br)(Br)Br,63 to 64 °C
8,NCc1cc(-c2ccc(Cl)cc2)no1,81 °C
9,CCOC(=O)C1=C(C)NC(C)=C(C(=O)OC)C1c1cccc2ccccc12 (stereo not drawn),196 to 197 °C
10,O=[N+]([O-])c1cc(F)c(N2CCCCC2)cc1Cl,70 °C
11,O=C(O)c1ccccc1N1C(=O)C=CC1=O,165 to 168 °C
12,CNC(=O)CCCCCN(C)S(=O)(=O)c1ccc(Cl)c(COc2cccc3ccc(C)nc23)c1Cl,110 to 112 °C
13,CSc1nccc(C)c1NC(=O)CSc1nc2ccccc2o1,146 to 148 °C
14,CNc1cc(O)c(OCCO)cc1[N+](=O)[O-],210 °C
15,COc1cc(NC(C)=O)ccc1OCCN1CCN(c2ccccc2F)CC1,118 to 119 °C
16,N#CN1CCN(c2nn(S(=O)(=O)c3ccccc3)c3cc(F)ccc23)CC1,178 to 180 °C
17,COc1ccc2c(c1)[C@@H](Oc1ccc3c(c1)CCC(=O)N3)[C@H](N1CCC[C@@H](N)C1)C2,146 °C
18,C[C@@H](Nc1ncnc2[nH]c(-c3ccc(CO)cc3)cc12)c1ccccc1,> 300 °C
19,C[C@]1(CN2CCN(C(=O)OCc3cc(Cl)cc(Cl)c3)CC2)Cn2cc([N+](=O)[O-])nc2O1,129 to 130 °C
20,COc1ccc(C(=O)C=C2c3ccccc3C(=O)c3ccccc32)cc1OC,160 °C
21,c1cc2c3c(cccc3c1)NCN2,89 to 93 °C
22,COC(=O)CC1COc2ccc(N)cc2C1 (stereo not drawn),104 to 106 °C
23,O=C1C=CC(O)(c2cc3cc(F)ccc3n2S(=O)(=O)c2ccccc2)C=C1,166 to 167 °C
24,COc1c(C)c2c(c(OC(C)=O)c1C/C=C/c1c(C)cccc1C(=O)O)C(=O)OC2,180 to 183 °C
25,CCOC(=O)C(=C(c1ccc(F)cc1)c1ccc(F)cc1)n1nnnc1-c1ccccc1,149 to 150 °C

row,SMILES,melting point
1,Cc1cc(Br)cnc1CCCCNC1=NS(=O)N=C1N (stereo not drawn),188 to 190 °C
2,O=C1NCCN1c1ccc(C2CCN(C(=O)C(F)(F)F)CC2)cc1,198 to 201 °C
3,CC(C)(C)OC(=O)NCCNC(=O)C1CCN(C(=O)OC(C)(C)C)CC1,172 to 174 °C
4,COc1ccc2sc3cc(-c4nnn[nH]4)ccc3c(=O)c2c1,> 350 °C
5,Cc1c(C)n2nnnc2c2nc(C)n(CCNC(=O)OC(C)(C)C)c12,> 250 °C
6,C[C@@H](n1ncn(-c2ccc(O)cc2)c1=O)[C@](O)(Cn1cncn1)c1ccc(F)cc1F,242 °C
7,O[C@@H]1CN(CCc2ccccc2)CC[C@H]1c1ccccc1 (relative stereo),115 to 119 °C
8,Cc1ccc(S(=O)(=O)OCC2Cc3cccc(-c4cccc(Cl)c4)c3O2)cc1 (stereo not drawn),101 to 103 °C
9,Cc1nc(-n2ccc3c(OCc4ccccc4)cccc3c2=O)sc1C(=O)NCc1ccccc1,225 to 226 °C
10,CCOC(=O)Cc1cnc(N)s1,101 °C
11,NNC(=O)c1cn2ccccc2n1,195 to 198 °C
12,CCCc1c(OCCCc2ccc(O)c(O)c2)ccc(C(=O)O)c1O,194 to 195 °C
13,CCC(C(=O)c1ccc(C(C)C)c(OS(N)(=O)=O)c1C(C)C)c1ccccc1 (stereo not drawn),142 to 145 °C
14,CN(c1cccc(C(F)(F)F)c1)c1cc(Oc2cccc(C(F)(F)F)c2)ncn1,118 to 119 °C
15,CCn1c(=O)c(-c2c(Cl)cccc2Cl)cc2cnc(Nc3ccc(OC)c(OC)c3)nc21,221 to 223 °C
16,CC(=Cc1cccc(O)c1)[N+](=O)[O-],96 to 98 °C
17,CN(C)S(=O)(=O)c1cccc(OC(F)F)c1C#N,100 to 102 °C
18,Cc1cc(C)c2nc(NC3CCN(CCO)CC3)n(Cc3nc(C)ccc3O)c2c1,177 °C
19,NC(=O)c1ccc2c(c1)C(=O)N1CCC[C@H]1CO2,287 to 290 °C
20,O=C1OC(=O)C2CC(=C(F)F)CC12 (stereo not drawn),140 to 145 °C
21,COc1ccccc1-n1c(=O)[nH]c2c(C(N)=O)nc(-c3ccncc3)nc21,318 to 320 °C
22,COc1cc(-c2ncn(-c3cc(OC)c(OC)c(OC)c3)c2-c2ccc(N(C)C)cc2)cc(OC)c1OC,169 to 171 °C
23,CN(C)C=C1CCc2ccn(Cc3ccccc3)c2C1=O,116 to 118 °C
24,O=S(=O)(Cl)c1cccc2[nH]nnc12,173 to 175 °C
25,Cc1nc(C)c(C(=O)Nc2cccc3c2C(C)CC3(C)C)s1 (stereo not drawn),117 to 118 °C

row,SMILES,melting point
1,CCNC(=O)N(O)C(c1ccccc1)c1cc(C(C)(C)C)c(O)c(C(C)(C)C)c1 (stereo not drawn),158 to 160 °C
2,Cc1oc2c(NC(=O)c3c(Cl)cccc3Cl)cc(C(N)=O)cc2c1C,> 250 °C
3,CC1(C)CC(OC(=O)NNC(=O)OC2CC(C)(C)N(OC3CCCCC3)C(C)(C)C2)CC(C)(C)N1OC1CCCCC1,150 to 152 °C
4,CC(=O)Nc1cc(-n2c(=O)cc(C(F)(F)F)[nH]c2=O)c(F)cc1Cl,264 to 266 °C
5,Cn1c(CNCC2CCOC2)cc2cc(NC(=O)c3ccc(OCC4CCOC4)cc3)ccc21 (stereo not drawn),131 to 133 °C
6,COc1ccc(C2CNC(=O)S2)cc1OC (stereo not drawn),167 to 169 °C
7,COc1cc(C(=O)ON=C(C)N)cc([N+](=O)[O-])c1OC,165 to 166 °C
8,Cc1c(C(=O)c2ccccc2)c(=O)n(C)c(=O)n1C,132 to 134 °C
9,O=C(Nc1ccccc1N1CCc2ccccc21)c1ccccc1F,139 to 141 °C
10,COc1ccc(/C=C/c2c(Cl)cncc2Cl)cc1OC1CCCC1,99 to 101 °C
11,O=C(NCCO)/C(=C/c1ccc(Cl)cc1)NC(=O)c1ccc(OCCc2ccc(F)cc2)cc1,60 to 63 °C
12,O=C(Nc1sc2c(c1C(=O)O)CCOC2)c1nn[nH]n1,> 250 °C
13,CCCCCCCCCCCCCc1nnc(N)o1,147 to 150 °C
14,COc1cc2nc(S(=O)Cc3cc(N(C)C)c(Cl)cn3)[nH]c2cc1OC (stereo not drawn),164 to 165 °C
15,COc1ccc(SCCCCSc2ccc(OC)cc2)cc1,102 to 103 °C
16,O=C(Nc1n[nH]c(=S)s1)N[C@@H](Cc1c(F)c(F)c(F)c(F)c1F)C(=O)N1CCN(c2ccccn2)CC1,233 to 235 °C
17,C/C=C/Cn1c(Cc2cc(C)cc(C)c2)c(CC)c(=O)[nH]c1=O,145 to 146 °C
18,CC(C)(C)c1ccc(C(=O)Nc2ccc([N+](=O)[O-])cc2C(=O)O)cc1,245 to 249 °C
19,FC(F)(F)c1ccc(-c2ccnc(Nc3ccccc3)n2)cc1,162 to 163 °C
20,Cc1cccc(C(=O)NN2NC=CC2C(=O)NCC(O)c2ccc(C(F)(F)F)cc2)n1 (stereo not drawn),250 to 251 °C
21,O=C(NC1=NN(c2ccc(Cl)c(Cl)c2)CC1)C(F)(F)F,181 to 183 °C
22,CC(C)(C)n1ncc(SCc2ccc(Oc3ccc(C(F)(F)F)cc3)cc2)c(Cl)c1=O,152 to 156 °C
23,CCS(=O)(=O)N(C)[C@@H]1c2cc(OCc3ccccc3)ccc2OC(C)(C)[C@H]1O,165 to 167 °C
